Reference: US20130029981A1, “COMPOUNDS, COMPOSITIONS, AND METHODS FOR CONTROLLING BIOFILMS” (Katholieke Universiteit Leuven, priority 2009, published 2013)
Like-named read-outs stand apart in the source and are kept apart here.

Legend:
[1] = system: S. Typhimurium ATCC14028; assay: Static peg assay for prevention of biofilm formation (Calgary device, crystal violet); format: cell-based, Salmonella Typhimurium
Description: (§1) Evaluation of the biofilm inhibitory activity of some substituted 2-amino-1H-imidazoles of the invention was carried out by growing up biofilms of S. Typhimurium ATCC14028 or SL1344 or Pseudomonas aeruginosa PA14 in the presence of different concentrations (1/2 dilution series) of biofilm inhibitors, by using the Calgary biofilm device. After an incubation period of 24 hours at 25° C. or 37° C. or 48 hours at 16° C. the biofilms were visualized by crystal violet staining. In the next step the stain was extracted from the biofilm with 30% acetic acid. The absorbance of the resolubilized stain at 570 nm is a measure of the amount of biofilm formed.
In examples 2 and 3, the following materials and methods were used.
The device used for biofilm formation is a platform carrying 96 polystyrene pegs (Nunc no. 445497) that fits as a microtiter plate lid with a peg hanging into each microtiter plate well (Nunc no. 269789). Biofilm formation assays were carried out at 16° C., 25° C. and 37° C.
For biofilm assays at 16° C. and 25° C., two-fold serial dilutions of the compounds in 100 μl liquid TSB 1/20 broth per well were prepared in the microtiter plate. Subsequently, an overnight culture of S. Typhimurium ATCC14028 or SL1344 (grown up in LB medium) was diluted 1:100 into TSB 1/20 broth and 100 μl (ca. 10^6 cells) was added to each well of the microtiter plates, resulting in a total amount of 200 μl medium per well. The pegged lid was placed on the microtiter plate and the plate was incubated for 48 hours at 16° C. or for 24 hours at 25° C. without shaking. During this incubation period biofilms were formed on the surface of the pegs. In case of the assay at 16° C., after 24 hours the lid was transferred into a new plate with medium and the specific molecules used for testing. […] For quantification of biofilm formation, the pegs were washed once in 200 μl phosphate buffered saline (PBS). The remaining attached bacteria were stained for 30 minutes with 200 μl 0.1% (w/v) crystal violet in an isopropanol/methanol/PBS solution (v/v 1:1:18). Excess stain was rinsed off by placing the pegs in a 96-well plate filled with 200 μl distilled water per well. After the pegs were air dried (30 min), the dye bound to the adherent cells was extracted with 30% glacial acetic acid (200 μl). The OD570 of each well was measured using the VERSAmax microtiter plate reader. The IC50 value for each compound was determined from concentration gradients in two or three independent experiments (with 2 or 3 repeats per experiment), by using the GraphPad software of Prism.
For biofilm assays at 37° C., two-fold serial dilutions of the compounds in 50 μl liquid CFA broth per well were prepared in the microtiter plate. Subsequently, an overnight culture of S. Typhimurium ATCC 14028 was diluted 1:100 into CFA broth and 100 μl (ca. 10^6 cells) was added to each well of the microtiter plates, resulting in a total amount of 150 μl medium per well. The pegged lid was placed on the microtiter plate and the plate was incubated for 24 hours at 37° C. without shaking. During incubation the plates were placed in a humidity controlled container to prevent evaporation of the growth medium. Quantification of biofilm formation was performed similarly as described above for the assays at 16° C. and 25° C.
as §1, with “imidazo[1,2-a]pyrimidinium bromide salts” for “2-amino-1H-imidazoles”

[2] = system: Pseudomonas aeruginosa PA14; assay: as above; format: cell-based
Description: as §1
The device used for Pseudomonas aeruginosa biofilm formation is the same platform carrying polystyrene pegs as described above for Salmonella Typhimurium.
Two-fold serial dilutions of the compounds in 100 μl liquid broth per well were prepared in the microtiter plate. Subsequently, an overnight culture of P. aeruginosa PA14 (grown up in TSB medium) was diluted 1:100 into liquid broth and 100 μl was added to each well of the microtiter plates, resulting in a total amount of 200 μl medium per well. The pegged lid was placed on the microtiter plate and the plate was incubated for 24 hours at 25° C., 30° C. or 37° C. without shaking. During this incubation period biofilms were formed on the surface of the pegs. The liquid broth used for the tests at 25° C. was TSB 1/20. The tests at 37° C. were performed in CFA and/or LBNS broth. During incubation at 30° C. and 37° C. the plates were placed in a humidity controlled container to prevent evaporation of the growth medium. Quantification of biofilm formation was performed similarly as described previously for the S. Typhimurium biofilm assays.
as §1, with “imidazo[1,2-a]pyrimidinium bromide salts” for “2-amino-1H-imidazoles”
as §1, with “substituted imidazo[1,2-a]-pyrimidinium bromide and perchlorate salts produced according to examples 3 and 5” for “substituted 2-amino-1H-imidazoles of the invention”, “C.” for “C. or 37° C. or 48 hours at 16° C.”, “nm was taken as” for “nm is”

[3] = 25° C., Table 16, read-out: S. Typhimurium IC50 (biofilm formation)
[4] = 25° C., Table 16, read-out: P. aeruginosa IC50 (biofilm formation)
[5] = 25° C., 24 hours, Table 15, read-out: (1) IC50 (biofilm inhibition)
[6] = 25° C., 24 hours, Table 15, read-out: (2) IC50 (biofilm inhibition)
[7] = Salmonella enterica, 24 h, read-out: (1) IC50 (biofilm inhibition)
[8] = Pseudomonas aeruginosa, PA14, 24 h, read-out: (2) IC50 (biofilm inhibition)

Structure (SMILES) | IC50 [1, 3] [µM] | IC50 [2, 4] [µM] | IC50 [1, 5] [µM] | IC50 [2, 6] [µM] | IC50 [1, 7] [µM] | IC50 [2, 8] [µM]
CC(C)N1c2nccc[n+]2CC1(O)c1ccccc1 (racemic) [Compound 2] | 540 | > 400 |  |  |  | 
CCCCN1c2nccc[n+]2CC1(O)c1ccccc1 (racemic) [Compound 3] | 410 | > 400 |  |  |  | 
CC(C)CN1c2nccc[n+]2CC1(O)c1ccccc1 (racemic) [Compound 4] | 131 | 289 |  |  |  | 
CCCCCN1c2nccc[n+]2CC1(O)c1ccccc1 (racemic) [Compound 5] | 278 | 565 |  |  |  | 
CCCCCCN1c2nccc[n+]2CC1(O)c1ccccc1 (racemic) [Compound 6] | 102 | 406 | 102 | 3.13 |  | 
CCCCCCCN1c2nccc[n+]2CC1(O)c1ccccc1 (racemic) [Compound 7] | 23.4 | 24.8 | 23.4 | 5.89 |  | 
CCCCCCCCN1c2nccc[n+]2CC1(O)c1ccccc1 (racemic) [Compound 8] | 9.8 | 18.9 | 9.77 | 11.2 |  | 
CCCCCCCCCN1c2nccc[n+]2CC1(O)c1ccccc1 (racemic) [Compound 9] | 8.3 | 55.7 | 8.26 | 4.85 |  | 
CCCCCCCCCCN1c2nccc[n+]2CC1(O)c1ccccc1 (racemic) [Compound 10] | 15 | 47 | 15 | 3.95 |  | 
CCCCCCCCCCCN1c2nccc[n+]2CC1(O)c1ccccc1 (racemic) [Compound 11] | 24.6 | > 800 | 24.6 | 28.6 |  | 
CCCCCCCCCCCCN1c2nccc[n+]2CC1(O)c1ccccc1 (racemic) [Compound 12] | 27.5 | > 800 | 27.5 | 9.63 |  | 
CCCCCCCCCCCCCN1c2nccc[n+]2CC1(O)c1ccccc1 (racemic) [Compound 13] | 81.6 | > 800 | 81.6 | 17 |  | 
CCCCCCCCCCCCCCN1c2nccc[n+]2CC1(O)c1ccccc1 (racemic) [Compound 14] | 180 | > 800 | 180 |  |  | 
CCCCN1c2nccc[n+]2CC1(O)c1ccc(Cl)cc1 (racemic) [Compound 16] | 29.7 | 24.9 |  |  |  | 
CC(C)CN1c2nccc[n+]2CC1(O)c1ccc(Cl)cc1 (racemic) [Compound 17] | 31.4 | 83.4 |  |  |  | 
CCCCCN1c2nccc[n+]2CC1(O)c1ccc(Cl)cc1 (racemic) [Compound 18] | 32.6 | 164 |  |  |  | 

Structure (SMILES) | IC50 [1, 3] [µM] | IC50 [2, 4] [µM] | IC50 [1, 5] [µM] | IC50 [2, 6] [µM] | IC50 [1, 7] [µM] | IC50 [2, 8] [µM]
CCCCCCN1c2nccc[n+]2CC1(O)c1ccc(Cl)cc1 (racemic) [Compound 19] | 13.7 | 79.8 | 13.7 | 20.2 |  | 
CCCCCCCN1c2nccc[n+]2CC1(O)c1ccc(Cl)cc1 (racemic) [Compound 20] | 6.7 | 36.9 | 6.67 | ~12.5 |  | 
CCCCCCCCN1c2nccc[n+]2CC1(O)c1ccc(Cl)cc1 (racemic) [Compound 21] | 7 | 21.7 | 6.98 | 11.7 |  | 
CCCCCCCCCN1c2nccc[n+]2CC1(O)c1ccc(Cl)cc1 (racemic) [Compound 22] | 18.3 | 21 | 18.3 | 60.5 |  | 
CCCCCCCCCCN1c2nccc[n+]2CC1(O)c1ccc(Cl)cc1 (racemic) [Compound 23] | 51.3 | 66.4 | 51.3 | 193 |  | 
CCCCCCCCCCCN1c2nccc[n+]2CC1(O)c1ccc(Cl)cc1 (racemic) [Compound 24] | 61.9 | > 800 | 61.9 | 205 |  | 
CCCCCCCCCCCCN1c2nccc[n+]2CC1(O)c1ccc(Cl)cc1 (racemic) [Compound 25] | 122 | > 800 | 122 | 119 |  | 
CCCCCCCCCCCCCN1c2nccc[n+]2CC1(O)c1ccc(Cl)cc1 (racemic) [Compound 26] | 316 | > 800 | 316 | 59 |  | 
CCCCCCCCCCCCCCN1c2nccc[n+]2CC1(O)c1ccc(Cl)cc1 (racemic) [Compound 27] | > 800 | > 800 |  |  |  | 
CCN1c2nccc[n+]2CC1(O)c1ccc([N+](=O)[O-])cc1 (racemic) [Compound 29] | 579 | > 800 |  |  |  | 
CC(C)N1c2nccc[n+]2CC1(O)c1ccc([N+](=O)[O-])cc1 (racemic) [Compound 30] | 466 | 192 |  |  |  | 
CCCCCCCC[n+]1c(-c2cccc3ccccc23)cn2cccnc21.[O-][Cl+3]([O-])([O-])[O-] [1-octyl-2-(1-naphthalenyl)-imidazo[1,2-a]-pyrimidin-1-ium perchlorate] |  |  |  |  | ~6.6 | 6.83
CCCCCCCC[n+]1c(-c2ccc(S(C)(=O)=O)cc2)cn2cccnc21.[O-][Cl+3]([O-])([O-])[O-] [1-octyl-2-(4-methylsulfonylphenyl)-imidazo[1,2-a]pyrimidin-1-ium perchlorate] |  |  |  |  | 82 | 49.6
CCCCCCCC[n+]1c(-c2ccc(-c3ccc([N+](=O)[O-])cc3)cc2)cn2cccnc21.[O-][Cl+3]([O-])([O-])[O-] [1-octyl-2-(4′-nitro[1,1-biphenylyl]-4-yl)-imidazo[1,2-a]pyrimidin-1-ium perchlorate] |  |  | 1.49 | 1.04 |  | 
CCCCCCCC[n+]1c(-c2ccc(Cl)c(Cl)c2)cn2cccnc21.[O-][Cl+3]([O-])([O-])[O-] [2-(3,4-Dichlorophenyl)-1-octylimidazo[1,2-a]pyrimidin-1-ium perchlorate] |  |  |  |  | 3.84 | 12.7
CCCCCCCC[n+]1c(-c2cccc(Br)c2)cn2cccnc21.[O-][Cl+3]([O-])([O-])[O-] [2-(3-Bromophenyl)-1-octylimidazo[1,2-a]pyrimidin-1-ium perchlorate] |  |  |  |  | 7.33 | 7
